Results on six compounds are retold here after paper PMC6379071 (Biochemistry, 2016).

One may read the Ki as the equilibrium dissociation constant of an inhibitor or competing ligand from its target. A word on the Km: it is the concentration of substrate that gives half-maximal velocity.

Like-named read-outs stand apart in the source and are kept apart here.

Series [1] has as its target T1, SULT1A1 (Homo sapiens, UniProt P50225). Type of series: binding.
The target in series [2] is T1, SULT1A1. In words: Presteady state. In kind it is binding.
In series [3] the target is T1, SULT1A1. The note with it: cited from earlier work; for second molecule binds more weakly than the first: unliganded SULT1A1 dimer.
The target in series [4] is T1, SULT1A1. The conditions noted are these: PAP, cited from earlier work.
Series [5] has as its target T1, SULT1A1. Description: 35S-PAPS test whether EGCG is a substrate. In kind it is biochemical.
For another series, the target named is T2, SULT2A1 (Homo sapiens, UniProt Q06520).
T2 sequence (Q06520 1-285): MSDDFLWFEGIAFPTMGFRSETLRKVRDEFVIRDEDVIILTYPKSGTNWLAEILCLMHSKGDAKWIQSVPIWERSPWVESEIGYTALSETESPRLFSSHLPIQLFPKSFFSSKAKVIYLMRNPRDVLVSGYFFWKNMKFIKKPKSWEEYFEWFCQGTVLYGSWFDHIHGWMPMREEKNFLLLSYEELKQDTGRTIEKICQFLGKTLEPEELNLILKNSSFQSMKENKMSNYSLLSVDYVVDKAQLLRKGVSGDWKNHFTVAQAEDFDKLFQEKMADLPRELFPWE
Description: 35S-PAPS test whether EGCG is a substrate. Type of series: biochemical.

Series [6] deals with T1, SULT1A1. The conditions noted are these: SULT1A1 isoform; cited from earlier work.
The conditions of series [7]: cited from earlier work.
For series [8], the target named is T1, SULT1A1. The note with it: PAPS 100 μM, NaPO4 50 mM, pH 7.2, 25 °C.
Setting [9] is: read-out: Kd of acceptor, enzyme form E·(EGCG)2.
Where [10] appears, read: EGCG binding to E·(PAP)2, two-step model.
The mark [11] stands for this setting: EGCG, enzyme species E·PAP·EGCG.

T1 sequence (P50225 whole entry): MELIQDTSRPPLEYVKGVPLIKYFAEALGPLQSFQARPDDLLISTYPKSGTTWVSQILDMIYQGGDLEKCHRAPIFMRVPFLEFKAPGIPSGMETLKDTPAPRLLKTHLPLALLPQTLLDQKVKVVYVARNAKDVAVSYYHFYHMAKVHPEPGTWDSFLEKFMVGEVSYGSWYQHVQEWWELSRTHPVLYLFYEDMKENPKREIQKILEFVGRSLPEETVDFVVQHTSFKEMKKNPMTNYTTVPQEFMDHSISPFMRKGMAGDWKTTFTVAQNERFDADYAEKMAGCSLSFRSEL

As to `Nc1ncnc2c1ncn2[C@@H]1O[C@H](COP(=O)(O)O)[C@@H](OP(=O)(O)O)[C@H]1O` [PAP, 3’, 5’-diphosphoadenosine], on SULT1A1 [1] (E·(EGCG)2 complex), the “decrease in the affinity of the second nucleotide caused by binding of the first” value came to 33 fold. For the same compound, the Kd on SULT1A1 [1] (Kd PAP, enzyme form E·(EGCG)2 (high-affinity site)) is 24 nM; on SULT1A1 [1] (Kd PAP, enzyme form E·(EGCG)2PAP (low-affinity site)) it was 780 nM; at SULT1A1 [1] (Kd PAP, enzyme form E·EGCGPAP), 31000 nM; at SULT1A1 [2] (Kd (koff/Kon), PAP, enzyme species E·(EGCG)2), 22 nM; on SULT1A1 [2] (Kd (koff/Kon), PAP, enzyme species E·(EGCG)2·PAP) it was 880 nM; at SULT1A1 [3] (read-out: Kd PAP, enzyme form E), 350 nM. For the same compound, the Kd on SULT1A1 [4] (read-out: Kd (koff/Kon), enzyme species E) is 370 nM. The entries for the “increase of PAP affinity at saturating EGCG” value on SULT1A1 [1] (high-affinity site) and at SULT1A1 [1] (low-affinity site) were 15 fold and 40 fold, respectively. Besides, on SULT1A1 [2], the “koff for PAP departure from the high affinity site of E·(EGCG)2, fold less than that from E” value was 18 fold. In addition, the kon on SULT1A1 [2] (PAP, enzyme species E·(EGCG)2 (high-affinity site)) was 1.7e+06 M⁻¹ s⁻¹; at SULT1A1 [2] (PAP, enzyme species E·(EGCG)2·PAP (low-affinity site)), 880000 M⁻¹ s⁻¹; on SULT1A1 [4] (enzyme species E), 2.0 (0.1) μM^−1s^−1; at SULT1A1 [4] (enzyme species E·PAP), 0.96 (0.01) μM^−1s^−1. For the same compound, the koff on SULT1A1 [2] (PAP, enzyme species E·(EGCG)2 (high-affinity site), saturating EGCG) was 0.038 s⁻¹; at SULT1A1 [2] (PAP, enzyme species E·(EGCG)2·PAP), 0.77 s⁻¹; at SULT1A1 [4] (enzyme species E), 0.70 (0.05) s^−1; on SULT1A1 [4] (enzyme species E·PAP), 29 ([1]) s^−1. On SULT1A1 [3], the “second molecule binds more weakly than the first” value is listed as 88 fold.
`Nc1ncnc2c1ncn2[C@@H]1O[C@H](COP(=O)(O)OS(=O)(=O)O)[C@@H](OP(=O)(O)O)[C@H]1O` [PAPS, 3’-phosphoadenosine 5’-phosphosulfate]: the “second molecule binds more weakly than the first” value on SULT1A1 [3] was 88 fold.
Take `C[C@]12CC[C@@H]3c4ccc(O)cc4CC[C@H]3[C@@H]1CC[C@@H]2O` [E2, 17-β-estradiol]: the Kd came out at 1000 nM at SULT1A1 [1]; 1000 nM at SULT1A1 [1] (setting [9]); 1000 nM on SULT1A1 [1] (read-out: Kd of acceptor, enzyme form E·(PAP)2); 1000 nM on SULT1A1 [1] (read-out: Kd of acceptor, enzyme form E·(PAP)2·(EGCG)2). Also, the “decrease of acceptor affinity when EGCG binds to E·(PAP)2” value on SULT1A1 [1] was “not affected”.
For `O=C(O[C@@H]1Cc2c(O)cc(O)cc2O[C@@H]1c1cc(O)c(O)c(O)c1)c1cc(O)c(O)c(O)c1` [EGCG, epigallocatechin gallate], the “affinity of EGCG for E·PAP relative to its affinity for E” value at SULT1A1 [1] worked out at 15 fold. In addition, the EGCG binding stoichiometry was found to be 1.0 EGCG/subunit at SULT1A1 [1] (E·(PAP)2) and 1.0 per dimer on SULT1A1 [1] (E·PAP, PAP-containing subunit (high-affinity site)). For the same compound, on SULT1A1 [1] (cap closed vs open), the “EGCG binds more tightly to cap-closed (nucleotide-bound) form” value was 17 fold. In addition, at SULT1A1 [1] (ligand-free enzyme, [SULT1A1] = 15 Kd), the EGCG-binding stoichiometry is on record as 1.0 per subunit. The Kd at SULT1A1 [1] (read-out: Kd EGCG, enzyme form E (ligand-free), allosteric site) was 680 nM; at SULT1A1 [1] (read-out: Kd EGCG, enzyme form E·(PAP)2), 39 nM; at SULT1A1 [1] (read-out: Kd EGCG, enzyme form E·EGCGPAP), 810 nM; on SULT1A1 [1] (read-out: Kd EGCG, enzyme form E·PAP) it was 44 nM; at SULT1A1 [2] (read-out: Kd (koff/Kon), EGCG, enzyme species E) it was 710 nM; on SULT1A1 [2] (read-out: Kd (koff/Kon), EGCG, enzyme species E·PAP), 46 nM. In addition, the Kd on SULT1A1 [2] (read-out: Kd (koff/Kon), EGCG, enzyme species E·PAP·EGCG) came out at 810 nM. Also, the “sulfonation of EGCG” value on SULT1A1 [5] (SULT1A1 30 μM, EGCG 250 μM, 35S-PAPS 0.30 μM, over 30 min) is on record as “not detected”. Also, the “turnover of EGCG” value on SULT1A1 [5] (from lower detection limit ~5 % of PAPS conversion over 30 min) is “less than 0.16 % min^−1”. At SULT2A1 (EGCG 30 μM, 35S-PAPS 30 μM, SULT2A1 0.50 μM dimer, in 2 min), the “EGCG converted to product” value stood at 12%. For the same compound, the “PAPS converted to sulfonated EGCG” value at SULT2A1 (SULT2A1 30 μM, EGCG 250 μM, 35S-PAPS 0.30 μM, in 1.0 min) is listed as “Thirty-four”. Further, the “Kiso for the cap of the high-affinity subunit in the E·(EGCG)2 complex” value at SULT1A1 [2] (21 × 18) turned out to be 378. Besides, the “kfor, binding step” value on SULT1A1 [2] (setting [10]) was 9.9 (0.6) × 10^6M^−1s^−1. The “kfor, isomerization step (cap closure)” value on SULT1A1 [2] (setting [10]) was determined as 172 s⁻¹. Moreover, on SULT1A1 [2] (setting [10]), the “krev, binding step” value worked out at 6.5 s⁻¹. Moreover, the “krev, isomerization step” value on SULT1A1 [2] (setting [10]) was 10 s⁻¹. Further, the koff at SULT1A1 [2] (EGCG, enzyme species E) is 6.9 (0.2) s^−1; on SULT1A1 [2] (EGCG, enzyme species E·PAP) it was 0.62 (0.03) s^−1; on SULT1A1 [2] (setting [11]), 13.9 (0.2) s^−1. The kon was 9.8 (0.3)^a μM^−1s^−1 on SULT1A1 [2] (EGCG, enzyme species E); 13.5 (0.7) μM^−1s^−1 on SULT1A1 [2] (EGCG, enzyme species E·PAP); 17.1 (0.3) μM^−1s^−1 at SULT1A1 [2] (setting [11]). Further, at SULT1A1 [2] (EGCG-bound E·(PAP)2), the “Kiso, isomerization equilibrium constant” value was 17. Also, the Ki at SULT1A1 [6] is 34 nM. Further, the “concentration of EGCG in human plasma” value in series [7] is listed as ~ 0.4 μ.
Regarding `O=[N+]([O-])c1ccc(O)cc1` [PNP, para-nitrophenol], on SULT1A1 [8] (PNP as acceptor), the kcat is given as 60 (± 1.8). Besides, the Ki on SULT1A1 [8] (PNP) was 6600 nM. Also, the Km on SULT1A1 [8] (read-out: Km (PNP)) was found to be 1.4 µM.
Consider `CC/C(=C(\c1ccc(O)cc1)c1ccc(OCCN(C)C)cc1)c1ccccc1` [TAM, 4-hydroxytamoxifen], for which, on SULT1A1 [1], the “decrease of acceptor affinity when EGCG binds to E·(PAP)2” value amounted to 23 fold. For the same compound, the Kd was found to be 700 nM on SULT1A1 [1] (Kd of acceptor, enzyme form E·(PAP)2); 16000 nM on SULT1A1 [1] (Kd of acceptor, enzyme form E·(PAP)2·(EGCG)2); 650 nM on SULT1A1 [1] (read-out: Kd of acceptor, enzyme form E); 670 nM on SULT1A1 [1] (setting [9]).
